Assay [1] concerns antigen-induced anaphylactic shock death. Put plainly: Protecting effect against antigen-induced anaphylactic shock death in actively sensitized guinea pigs. To be noted: Cavia porcellus, 1.5 h, oral, 30 minutes before antigen inhalation. The format is in vivo, male guinea pigs. As for the experimental part: (2) Protecting effect against antigen-induced anaphylactic shock death in actively sensitized guinea pigs
Anaphylactic shock death caused by inhalation of antigen was observed according to John P. Devlin Pulmonary and Antiallergic Drugs, John Wiley & Sons, (1985)] employing actively sensitized guinea pigs.
Each 100 mg/kg of body weight ovalbumin dissolved in physiological saline was injected into gluteus and into peritoneal cavity of male guinea pigs weighing 250 to 350 g. Three days later, the animals were further injected intraperitoneally with ovalbumin (100 mg/kg body weight) to conduct booster. Those animals were employed for testing 3 to 4 weeks after the sensitization.
In each group, 4 or more actively sensitized guinea pigs were pretreated by subcutaneously injecting pyrilamine (1 mg/kg body weight) 30 minutes before antigen inhalation to suppress histamine-dependent response and propranolol (1 mg/kg body weight) to enhance the response induced by other than histamine 10 minutes before the antigen inhalation.
The animal was placed in a desiccator with a capacity of about […] and 0.5% aqueous solution of ovalbumin in the state of aerosol was inhaled with ultrasonic type nebulizer for five minutes. Anaphylactic shock death was observed and the animals survived for 90 minutes or more after antigen inhalation were estimated to be protected. All the animals of the control group died due to anaphylactic shock. The compounds of the present invention and therapeutic antiasthmatic agent (tranilast, theophylline) were administered orally 30 minutes before the antigen inhalation.

Assay [2] deals with T1, 5-lipoxygenase (Cavia porcellus, UniProt A0A286X958).
T1 construct: The cytosol fraction was used as an enzyme solution; from tissue; host or cells: peritoneal exudate cells of casein-injected Hartley guinea pigs, 105,000×g cytosol
T1 sequence (A0A286X958 1-674): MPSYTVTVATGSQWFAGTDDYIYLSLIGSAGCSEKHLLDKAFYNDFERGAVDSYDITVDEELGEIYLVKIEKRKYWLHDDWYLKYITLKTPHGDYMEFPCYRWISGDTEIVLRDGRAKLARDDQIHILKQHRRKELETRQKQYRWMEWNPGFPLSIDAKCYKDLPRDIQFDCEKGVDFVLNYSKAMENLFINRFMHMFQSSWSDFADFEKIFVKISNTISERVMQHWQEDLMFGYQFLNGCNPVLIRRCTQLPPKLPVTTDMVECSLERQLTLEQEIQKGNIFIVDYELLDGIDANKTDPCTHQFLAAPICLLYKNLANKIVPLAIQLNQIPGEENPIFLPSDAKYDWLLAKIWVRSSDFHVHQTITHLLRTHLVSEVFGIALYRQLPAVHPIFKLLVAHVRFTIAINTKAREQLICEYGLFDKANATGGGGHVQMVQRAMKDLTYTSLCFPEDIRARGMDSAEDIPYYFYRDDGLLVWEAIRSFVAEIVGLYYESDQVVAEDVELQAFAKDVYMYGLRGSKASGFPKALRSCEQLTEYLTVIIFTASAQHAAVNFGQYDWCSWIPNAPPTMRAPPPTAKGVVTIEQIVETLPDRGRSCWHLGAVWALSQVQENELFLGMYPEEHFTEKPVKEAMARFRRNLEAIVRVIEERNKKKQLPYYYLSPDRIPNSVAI
Put plainly: 5-Lipoxygenase inhibiting activity (5-HETE formation, cytosol of peritoneal exudate cells). The format is biochemical, Hartley guinea pigs. Conditions: read-out: Inhibition rate (5-lipoxygenase); for inhibition at 10 µM: 10 μM in the reaction mixture; for inhibition at 1 µM: 1 μM in the reaction mixture. Here is the method: 5-Lipoxygenase inhibiting activity of the compound of the present invention was measured referring to the method for measuring 5-lipoxygenase activity by K. Ochi et al. [Journal of Biological Chemistry (J. Biol. Chem.), 258, 5754(1983)].
Sterilized 2% solution of casein (pH 7) was injected intraperitoneally into Hartley guinea pigs in a volume of 5 ml/100 g body weight. Fifteen hours later, the guinea pigs were killed and peritoneal exudate cells thereof were collected. After the exudate cells were washed with 17 mM Tris--HCl buffer (pH 7.4) containing 0.74% ammonium to remove contaminating erythrocytes in the exudate cells suspension, the cells were washed with buffer A (130 mM NaCl, 1 mM EDTA, 25 mM sodium phosphate, pH 7.4). The washed cells were suspended in buffer B (50 mM sodium phosphate, 1 mM EDTA, 0.1% gelatin, pH 7.4) at 10^8 cells/ml, sonicated and centrifuged at 10,000×g for 20 minutes under the cold atmosphere. The obtained supernatant was further centrifuged at 105,000×g for 60 minutes under the cold atmosphere. The cytosol fraction was used as an enzyme solution.
The enzyme solution was preincubated with the […] in the presence of 1 mM CaCl2, 1 mM reduced gluthathione (GSH) and 2 mM ATP at 30° C. for 5 minutes in 0.2 ml of a reaction mixture and the mixture was further incubated at 30° C. for 5 minutes by adding 20 μM [1-^14 C] arachidonic acid (0.1 μCi) thereto. The test compounds were dissolved in ethanol to give the reaction mixture containing 2% ethanol as a final concentration. Only ethanol was added to the reaction mixture as a control group.
To the reaction mixture were added 2.5 ml of a mixture of chloroform and methanol (2/1 by volume) and 0.3 ml of 40 mM citric acid to stop the reaction. The mixture was vortexed and an organic solvent layer was evaporated to dryness under nitrogen gas. After dissolving the dried organic layer in a fixed amount of the mixture of chloroform and methanol (2/1 by volume), it was spotted on a silica gel plate (Kiesel gel 60F254, E. Merck) and products were separated using a developer (the organic solvent layer of ethyl acetate/water/2,2,4-trimethylpentane/acetic acid=11/10/5/2 by volume). After the radioactive position of the product was determined by means of a radioautography, an area equivalent to that of 5-hydroxyeicosatetraenoic acid (hereinafter referred to as "5-HETE") was scraped off, and then its radioactivity was measured with a liquid scintillation counter. With regarding the amount of the generated 5-HETE as the 5-lipoxygenase inhibiting activity, the inhibition rate (%) in comparison with the control group was calculated according to the following equation. [formula]

Assay [3] addresses T2, epidermal growth factor receptor-tyrosine kinase complex (Homo sapiens, UniProt P00533).
T2 construct: The membrane preparation was employed in the following measurement without solubilization; endogenous in cells; host or cells: A-431 (ATCC CRL1555), membrane preparation, not solubilized
Kind of assay: Tyrosine kinase inhibiting activity (A-431 membrane preparation, EGF-stimulated). The format is biochemical. To be noted: read-out: Tyrosine kinase inhibition rate; for inhibition at 10 µM: 10 μM in the reaction mixture; for inhibition at 1 µM: 1 μM in the reaction mixture. Here is the method: Tyrosine kinase inhibiting activity of the compound of the present invention was measured referring to a method for measuring tyrosine kinase activity by G. Carpenter or by S. Cohen et al. [J. Biol. Chem., 254, 4884(1979); J. Biol. Chem., 257, 1528(1982)].
Cell line A-431 derived from human carcinoma (ATCC CRL1555) was cultured at 37° C. under the condition of 5% CO2 in Dulbecco's modified Eagle's medium (made by NISSUE PHARMACEUTICAL CO., LTD.) containing 10% by volume fetal bovine serum, 50 μg/ml of streptomycin, 50 IU/ml of penicillin G and 50 μg/ml of kanamycin. […] The membrane preparation was employed in the following measurement without solubilization.
A test compound dissolved in dimethylsulfoxide (hereinafter referred to as "DMSO") was added to a mixture of 20 mM of N-2-hydroxyethylpiperazine-N'-2-ethanesulfonic acid buffer (pH 7.4), 1 mM of MnCl2, 7.5 μg of bovine serium albumin and the membrane preparation (10 μg as protein). After incubation at 0° C. for 5 minutes, 100 ng of epidermal growth factor (hereinafter referred to as "EGF") was added thereto and the mixture was further incubated at 0° C. for 15 minutes. [γ-^32 P]ATP (3000 Ci/mmol, 0.1 μCi) was added thereto to make final volume of 70 μl. After incubation at 0° C. for 15 minutes, 50 μl of the reaction mixture was soaked into Whatman 3 MM filter paper (made by Whatman Ltd.) and immediately the reaction was stopped by an aqueous solution of 10% by weight trichloroacetic acid containing 10 mM sodium pyrophosphate. The filter paper was sufficiently washed with the same solution and then washed with ethanol, and dried. Radioactivity present in the filter paper was measured by liquid scintillation counter (A). Also, radioactivity was measured in case of the reaction without EGF (B), the reaction without the test compound (C), and the reaction without both EGF and the test compound (D) as a control.
Tyrosine kinase inhibition rate (%) was calculated by the following equation. [formula]

In assay [4] the test system is Nycobacterium smegmatis ATCC 607. Kind of assay: Antibacterial activity (MIC) against acid-fast bacteria. To be noted: 37° C., 40 to 42 hours. The format is cell-based. As for the experimental part: As for acid-fast bacteria, after cultured in glycerol broth medium, there was prepared a bacterial suspension for inoculation containing about 10^6 of the bacteria per 1 ml of the medium. On the other hand, there were prepared some glycerol Czapek agar plating media with adding the test compounds, and thereto the bacterial suspension for inoculation was streaked.

Assay [5] relates to passive cutaneous anaphylaxis (PCA) reaction. Kind of assay: Inhibitory activity against homologous PCA reaction in rats. The format is in vivo, male Wistar rats. Conditions: Rattus norvegicus, oral, read-out: Inhibition rate (PCA reaction); for inhibition in vivo at 100 mg/kg: 1 hour before antigen. As for the experimental part:
(1) Inhibitory activity against homologous PCA reaction in rats
Antiserum was prepared according to I. Mota [Immunology, 7, 681(1964)]and the PCA reaction was conducted according to Maruyama et al. [Folia Pharmacologica Japonica, 74, 179(1978}].
An ovalbumin solution dissolved in physiological saline (2 mg/ml) was injected intramuscularly into both thighs of male Wistar rats weighing 200 to 260 g in a volume of 0.5 ml/100 g body weight, and pertussis vaccine (Bordetella pertussis, 2×10^10 /ml/ Chiba Serum Institute) was intraperitoneally administered at 1 ml/rat. Twelve days after sensitization, blood was taken from posterior aorta under ether anesthesia and serum was separated and stored at -80° C.
In each group, 4 male Wistar rats weighing 180 to 210 g were used. Back of the rats was shaved and reach 0.05 ml of antiserum diluted 32 times with physiological saline was injected intradermally at four sites on the back. After 48 hours, 1 ml of a mixture of ovalbumin (2 mg/ml) as an antigen and Evans blue (10 mg/ml) in the volume ratio of 1 : 1, which was dissolved in physiological saline was injected intravenously into the tail. Thirty minutes later, the rats were bled to death under ether anesthesia and the back skin of the rats was removed. The blue-dyed area formed by pigment exudation was measured and an inhibition rate (%) was calculated as compared with control according to the following equation. [formula]
A test compound suspended in a 2.5 % aqueous solution of gum arabic containing 0.2 % Tween 80 was administered orally in a volume of 0.5 m:/100 g body weight 1 hour before the injection of antigen. To the control group, only the vehicle was administered. Tranilast which was a positive control compound was administered orally 30 minutes before the injection of antigen.

The subject of assay [6] is antigen-induced airway constriction. Put plainly: Inhibitory activity against antigen-induced airway constriction in actively sensitized guinea pigs. The format is in vivo. Conditions: Cavia porcellus, iv, 3 minutes before antigen inhalation, read-out: Inhibition rate (airway constriction). As for the experimental part: (3) Inhibitory activity against antigen-induced airway constriction in actively sensitized guinea pigs
That is, the sensitized guinea pigs (5 guinea pigs/group) were provided with artificial respiration by inserting a tracheal cannula under urethane anesthesia (1.5 g/kg body weight, intraperitoneal administration), and then, gallamine at 1 mg/kg body weight was injected intravenously to stop spontaneous respiration of the guinea pigs. Inhalation of 0.5% aqueous solution of ovalbumin was conducted using a nebulizer for 1 minute to increase antigen-induced airway constriction, at the same time, airway pressure was recorded through a transducer. Test compound was administered into jugular vein (i.v.) of the guinea pig 3 minutes before the antigen inhalation or administered orally (p.o.) 2 hours before the antigen inhalation. As a positive control compound, theophylline which was a drug for anti-asthma was used. The effect of the compound was estimated by calculating the maximum value of airway constriction (%) in comparison with the control group, according to the following equation. [formula]

≈ marks a conversion by molar mass, not a printed value. Where only a bound is given, the exact number is not on record here.

T2 sequence (P00533 25-1210, one chain of several): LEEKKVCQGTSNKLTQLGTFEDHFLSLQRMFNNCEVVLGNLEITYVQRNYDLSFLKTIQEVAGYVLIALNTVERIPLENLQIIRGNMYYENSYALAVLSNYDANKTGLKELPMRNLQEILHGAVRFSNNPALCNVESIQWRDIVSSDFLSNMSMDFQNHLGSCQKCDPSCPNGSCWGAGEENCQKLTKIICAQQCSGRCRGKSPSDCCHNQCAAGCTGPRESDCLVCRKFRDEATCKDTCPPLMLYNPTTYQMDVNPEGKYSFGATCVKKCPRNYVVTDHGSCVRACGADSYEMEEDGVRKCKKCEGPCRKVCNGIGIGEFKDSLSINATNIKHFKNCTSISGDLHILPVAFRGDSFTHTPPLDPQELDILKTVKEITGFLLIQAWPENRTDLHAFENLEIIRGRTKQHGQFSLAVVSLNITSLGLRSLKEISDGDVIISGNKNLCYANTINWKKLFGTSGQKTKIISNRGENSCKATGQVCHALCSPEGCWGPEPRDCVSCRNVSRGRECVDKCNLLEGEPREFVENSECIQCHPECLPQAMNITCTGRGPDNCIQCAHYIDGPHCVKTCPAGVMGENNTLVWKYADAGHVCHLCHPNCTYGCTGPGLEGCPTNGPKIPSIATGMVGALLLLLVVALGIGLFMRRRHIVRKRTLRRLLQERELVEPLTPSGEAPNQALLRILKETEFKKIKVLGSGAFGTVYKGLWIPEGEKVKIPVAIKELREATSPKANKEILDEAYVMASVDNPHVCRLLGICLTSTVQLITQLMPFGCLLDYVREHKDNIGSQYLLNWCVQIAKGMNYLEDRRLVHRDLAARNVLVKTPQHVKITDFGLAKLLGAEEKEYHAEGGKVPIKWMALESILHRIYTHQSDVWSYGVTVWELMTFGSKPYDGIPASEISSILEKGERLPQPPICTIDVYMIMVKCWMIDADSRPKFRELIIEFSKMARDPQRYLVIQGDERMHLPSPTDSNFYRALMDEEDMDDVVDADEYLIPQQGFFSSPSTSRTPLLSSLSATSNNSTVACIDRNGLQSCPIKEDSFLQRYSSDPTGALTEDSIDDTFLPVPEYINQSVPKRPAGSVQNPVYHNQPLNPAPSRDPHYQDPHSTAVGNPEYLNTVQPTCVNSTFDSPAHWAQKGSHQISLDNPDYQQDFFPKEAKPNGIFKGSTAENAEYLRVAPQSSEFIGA

The inhibition is the relative decrease from the control value, in per cent. Regarding `CC(C)c1cc(C=C2SC(NCc3ccc(Cl)cc3)=NC2=O)cc(C(C)C)c1O` [Compound 36], the responders at 100 mg/kg in assay [1] was 25%. Also, the inhibition at 10 µM in assay [2] came out at 84%; in assay [3], 59%.

Usually MIC stands for the smallest concentration in the dilution series that meets the test's criterion for growth inhibition. Lower therefore signals greater potency. As to `CCCCOc1cc(C=C2SC(NCc3ccccc3)=NC2=O)cc(Cc2ccccc2)c1O` [Compound 30], the MIC in assay [4] was at most 6 µg/mL. Moreover, the figures for the inhibition at 1 µM in assay [2] and in assay [3] were 87% and 70%, respectively.

Take `COc1ccc(CNC2=NC(=O)C(=Cc3cc(C(C)C)c(O)c(C(C)C)c3)S2)cc1` [Compound 38]: in assay [1], the responders at 100 mg/kg was 25%. Further, the inhibition at 10 µM was 88% in assay [2] and 85% in assay [3].

`CC(C)c1cc(C=C2SC(Nc3ccccc3)=NC2=O)cc(C(C)C)c1O` [Compound 32] showed an MIC in assay [4] of at most 6 µg/mL. In assay [5], the inhibition in vivo at 100 mg/kg was 21%. Moreover, in assay [3], the inhibition at 1 µM is 74%. Also, the inhibition in vivo at 2 mg/kg in assay [6] (2 mg/kg) came to 23%.

Consider `N#CC(=Cc1cc(O)c(O)c(Cc2ccccc2)c1)C(N)=O` [Compound 23], for which, in assay [5], the inhibition in vivo at 100 mg/kg came to 29%. The inhibition at 10 µM was found to be 85% in assay [2] and 60% in assay [3].

For `COc1ccc(/C=C/C(=O)Nc2ccccc2C(=O)O)cc1OC` [tranilast, reference compound], in assay [5] (300 mg/kg, 30 minutes before antigen, positive control), the inhibition in vivo at 300 mg/kg was found to be 40%. Further, the responders at 100 mg/kg in assay [1] was determined as 0%.

`CC(C)c1cc(C=C2SC(NCc3ccccn3)=NC2=O)cc(C(C)C)c1O` [Compound 45]: the MIC in assay [4] is 2 µg/mL (≈ 5.06 µM). Besides, in assay [2], the inhibition at 1 µM stood at 36%. For the same molecule, in assay [3], the inhibition at 10 µM came out at 90%. The inhibition in vivo at 1 mg/kg in assay [6] came to 42%.

As to `Cn1c(=O)c2[nH]cnc2n(C)c1=O` [theophylline, reference compound], in assay [1] (30 mg/kg), the responders at 30 mg/kg is 50%. Also, the inhibition in vivo at 1 mg/kg in assay [6] came out at 31%.

Regarding `CC(C)c1cc(C=C2SC(NCCc3ccccc3)=NC2=O)cc(C(C)C)c1O` [Compound 34], the MIC in assay [4] is at most 6 µg/mL. The inhibition in vivo at 100 mg/kg in assay [5] amounted to 48%. The inhibition at 1 µM in assay [3] stood at 63%.

These data come from US5089516A, “1-phenyl-3,5-pyrazolidinedione hydroxystyrene compounds which have tyrosine kinase inhibiting activity” (Kanegafuchi Kagaku Kogyo Kabushiki Kaisha, priority 1987, dated 1992).
